Values joined by “and” are separate entries in the source; they are usually repeats but may differ in a detail not shown here. Equal values may be shown once. “Also recorded” adds a separate entry of the source. Read-outs that look alike come from different tables or passages of the source.
What was measured:
Cholera toxin (CT) = settings: mouse, in vivo
[1] = molecular target: anthrax edema factor (EF) (Bacillus anthracis, UniProt P40136); experiment: cell-based
cholera toxin = type: cell-based, Vibrio cholerae
[2] = system: bacterial adhesion to HeLa cells; type: cell-based
[3] = system: bacterial adhesion to Caco-2 cells; type: cell-based
[4] = system: Enterotoxigenic E. coli (ETEC); settings: mouse, in vivo
physchem = settings: organic solvent or mixture
[5] = system: ETEC H10507 or other enteric bacteria; type: cell-based, E. coli and Salmonella

Chain of anthrax edema factor (EF) (P40136 whole entry, looked up): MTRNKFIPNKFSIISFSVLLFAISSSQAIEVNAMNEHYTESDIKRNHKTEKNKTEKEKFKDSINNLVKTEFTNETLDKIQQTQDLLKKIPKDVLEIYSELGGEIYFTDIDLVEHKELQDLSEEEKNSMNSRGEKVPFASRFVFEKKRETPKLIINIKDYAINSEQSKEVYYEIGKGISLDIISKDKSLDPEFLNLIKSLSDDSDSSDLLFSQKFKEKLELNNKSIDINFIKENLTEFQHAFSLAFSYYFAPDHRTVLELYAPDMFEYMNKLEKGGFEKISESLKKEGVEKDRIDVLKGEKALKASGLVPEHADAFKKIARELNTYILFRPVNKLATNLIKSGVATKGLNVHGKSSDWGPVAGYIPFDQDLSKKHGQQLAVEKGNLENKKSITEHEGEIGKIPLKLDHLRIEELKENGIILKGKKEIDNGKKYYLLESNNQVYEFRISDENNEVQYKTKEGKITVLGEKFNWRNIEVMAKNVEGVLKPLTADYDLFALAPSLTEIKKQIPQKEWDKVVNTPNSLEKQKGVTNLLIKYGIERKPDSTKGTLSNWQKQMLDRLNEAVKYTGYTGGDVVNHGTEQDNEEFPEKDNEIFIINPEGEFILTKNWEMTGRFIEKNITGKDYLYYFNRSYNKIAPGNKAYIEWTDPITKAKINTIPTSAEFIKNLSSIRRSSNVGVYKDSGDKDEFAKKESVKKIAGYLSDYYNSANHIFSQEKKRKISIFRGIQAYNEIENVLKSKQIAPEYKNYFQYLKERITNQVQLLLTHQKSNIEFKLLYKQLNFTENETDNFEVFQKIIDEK

For COc1cccc([C@H]2Nc3ccc(C(=O)O)cc3[C@@H]3C=CC[C@H]23)c1 (stereo in doubt) [FII-1, 4-(3-methoxy-phenyl)-3a,4,5,9b-tetrahydro-3H-cyclopenta[c]quinoline-8-carboxylic acid], the “cytotoxicity in LDH assay (in words)” value (RAW 264.7 cells) was “no obvious cytotoxic effect”, the “Reduction of fluid accumulation” value (Cholera toxin (CT)) was “No*” and the Toxicity (Cholera toxin (CT)) was “No”. The “accumulation of intestinal fluid after experimental infection with CT (in words)” value (Cholera toxin (CT)) was “did not cause a significant reduction in fluid accumulation”, the “toxic effects in the animals (in words)” value (Cholera toxin (CT)) was “Toxic effects were observed” and the “inhibition of EF / Edema Toxin induced cAMP production (in words)” value [1] was “effective; also recorded: more active than PGE2-imidazole”. For the same compound, the IC50 ([1]; IC50 values) was 1.8 to 7 µM.

For COc1cccc(C2=CC(=O)CC(c3ccco3)C2)c1 (centres unmarked) [FI-1, 5-Furan-2-yl-3-(3-methoxy-phenyl)-cyclohex-2-enone], the “inhibition of cholera toxin induced cAMP (in words)” value (cholera toxin) was “did not inhibit”, the “toxic effects in the animals (in words)” value (Cholera toxin (CT); Swiss-Webster) was “toxic effects similar to FI-2” and the “Reduction of fluid accumulation” value (Cholera toxin (CT)) was “No”. For the same compound, the Toxicity (Cholera toxin (CT)) was “Yes”, the “accumulation of intestinal fluid after experimental infection with CT (in words)” value (Cholera toxin (CT)) was “did not cause a reduction in fluid accumulation” and the “inhibition of EF / Edema Toxin induced cAMP production (in words)” value [1] was “did not inhibit”. For the same compound, the IC50 ([1]; IC50) was 20 µM and the IC50 ([1]; Selected assay results (IC50)) was 20.4 µM and > 100 µM.

For COc1cccc(C2=CC(=O)CC(c3ccc(F)cc3)C2)c1 (centres unmarked) [FI-2, 5-(4-Fluoro-phenyl)-3-(3-methoxy-phenyl)-cyclohex-2-enone], the “cytotoxicity in LDH assay (in words)” value (RAW 264.7 cells) was “minimal cytotoxic effect”, the “toxic effects in the animals (in words)” value (Cholera toxin (CT); Swiss-Webster) was “number of animals surviving the full 6 hour of the incubation was reduced by half” and the “Reduction of fluid accumulation” value (Cholera toxin (CT)) was “Yes”. The Toxicity (Cholera toxin (CT)) was “No”, the “toxic effects in the animals (in words)” value (Cholera toxin (CT)) was “highly toxic” and the “inhibition of EF / Edema Toxin induced cAMP production (in words)” value [1] was “cAMP inhibitory activity”. For the same compound, the IC50 ([1]; IC50) was 28 µM and the IC50 ([1]; Selected assay results (IC50)) was 21.4 µM and 27.3 µM.

In the case of COc1cccc(C2=C(C)C(=O)CC2)n1 [FI-3, 3-(6-Methoxy-pyridin-2-yl)-2-methyl-cyclopent-2-enone], the “inhibition of cholera toxin induced cAMP (in words)” value (cholera toxin) is reported as “most consistently been active; also recorded: inhibits cholera toxin induced cAMP, but not quite as well as PGE2-imidazole”, the “toxic effects in the animals (in words)” value (Cholera toxin (CT); Swiss-Webster) is reported as “several animals treated with the CT+FI-3 mixture died” and the “Reduction of fluid accumulation” value (Cholera toxin (CT)) is reported as “Yes”. For the same compound, the “toxic effects in the animals (in words)” value (Cholera toxin (CT)) was “displayed edema, blood and fluid accumulation”, the “inhibition of EF / Edema Toxin induced cAMP production (in words)” value [1] was “most consistently been active; also recorded: dose-dependent activity and reduced extracellular cAMP accumulation” and the IC50 ([1]; Selected assay results (IC50)) was 38.8 µM and 64.1 µM and 11.1 µM and 29.4 µM. For the same compound, the IC50 ([1]; read-out: IC50) was 30 µM and the IC50 ([1]; read-out: Selected assay results (IC50)) was 29.9 µM.

For COc1cccc(C2=CC(=O)CCC2)n1 [FI-9, 3-(6-Methoxy-pyridin-2-yl)-cyclohex-2-enone], the “inhibition of EF / Edema Toxin induced cAMP production (in words)” value [1] was “not active”.

With COc1ccc(C2=C(C)C(=O)CC2)cn1 [FI-14, 3-(6-Methoxy-pyridin-3-yl)-2-methyl-cyclopent-2-enone] the “inhibition of EF / Edema Toxin induced cAMP production (in words)” value [1] was “good activity” and the IC50 ([1]; read-out: IC-50) was 24 µM.

For COc1cccc(C2=CC(=O)CCC2)c1 [FI-15, 3-(3-Methoxy-phenyl)-cyclohex-2-enone], the IC50 ([1]; read-out: IC-50) was 30 µM.

In the case of O=C1C=C(c2ccc3[nH]ccc3c2)CCC1 [FI-17, 3-(1H-Indol-5-yl)-cyclohex-2-enone], the “inhibition of EF / Edema Toxin induced cAMP production (in words)” value [1] is reported as “comparable activity to the best compounds” and the IC50 ([1]; read-out: IC-50) is reported as 56 µM.

In the case of O=C1C=C(c2ccc3c(c2)OCO3)CCC1 [FI-18, 3-Benzo[1,3]dioxol-5-yl-cyclohex-2-enone], the IC50 ([1]; read-out: IC-50) is reported as 53 µM.

For COc1cccc(C2=C(C)C(=O)CC2)n1 [FI-21, 3-(6-Methoxy-pyridin-2-yl)-2-methyl-cyclopent-2-enone], the “inhibition of EF / Edema Toxin induced cAMP production (in words)” value [1] was “good activity” and the IC50 ([1]; read-out: IC-50) was 30 µM.

Compound COc1ccccc1C1=CC(=O)CCC1 [FI-27, 3-(2-Methoxy-phenyl)-cyclohex-2-enone] has an IC50 ([1]; read-out: IC-50) of 35 µM.

In the case of O=C(O)c1ccc(/N=C/c2c3ccccc3cc3ccccc23)cc1O [FIII-1, 4-[(Anthracen-9-ylmethylene)-amino]-2-hydroxy-benzoic acid], the “inhibition of EF / Edema Toxin induced cAMP production (in words)” value [1] is reported as “more active than PGE2-imidazole” and the IC50 ([1]; read-out: IC50 values) is reported as 9 µM.

Work on COc1ccc(C(=O)O)cc1NC(=O)c1cccc2c1C(=O)c1ccccc1-2 [FIV-1, 4-Methoxy-3-[(9-oxo-9H-fluorene-1-carbonyl)-amino]-benzoic acid] yielded an IC50 ([1]; IC50) of 5.8 µM.

O=C(O)c1cc(NC(=O)c2cccc3c2C(=O)c2ccccc2-3)ccc1O [FIV-35, 2-Hydroxy-5-[(9-oxo-9H-fluorene-1-carbonyl)-amino]-benzoic acid] gave an IC50 ([1]; IC50) of 6.2 µM.

O=C(O)c1cccc(NC(=O)c2cccc3c2C(=O)c2ccccc2-3)c1O [FIV-39, 2-Hydroxy-3-[(9-oxo-9H-fluorene-1-carbonyl)-amino]-benzoic acid] showed an IC50 ([1]; IC50) of 5.6 µM.

For O=C(O)c1cccc(NC(=O)c2cccc3c2C(=O)c2ccccc2-3)c1 [FIV-50, 3-[(9-Oxo-9H-fluorene-1-carbonyl)-amino]-benzoic acid], the “effect on bacterial adherence (in words)” value [2] was “Reduction in adherence was only observed in ETEC”, the “cytotoxicity in LDH assay (in words)” value (RAW 264.7 cells) was “no obvious cytotoxic effect” and the “effect on bacterial adherence (in words)” value [3] was “no reduction in adherence”. The “differences in the number of bacteria recovered” value [4] was 3 logs, the “Reduction of fluid accumulation” value (Cholera toxin (CT)) was “Yes” and the Toxicity (Cholera toxin (CT)) was “No”. The “inhibition of EF / Edema Toxin induced cAMP production (in words)” value [1] was “extremely effective; also recorded: more active than PGE2-imidazole”, the IC50 ([1]; IC50) was 1.7 to 9 µM and the IC50 ([1]; IC50 values) was 1.7 to 5 µM. It also gave an IC50 ([1]; IC50 values, mean) of 4.74 µM, an IC50 ([1]; IC50 values, range) of 0.291 to 12.3 µM and a solubility (physchem) of no less than 100 mM. For the same compound, the “effect on bacterial growth rate (in words)” value [5] was “no effect on growth”.

Work on COC(=O)c1cccc(NC(=O)c2cccc3c2C(=O)c2ccccc2-3)c1C [FIV-54, 2-Methyl-3-[(9-oxo-9H-fluorene-1-carbonyl)-amino]-benzoic acid methyl ester] yielded an IC50 ([1]; IC50) of 12.9 µM.

Cc1c(NC(=O)c2cccc3c2C(=O)c2ccccc2-3)cccc1C(=O)O [FIV-55, 2-Methyl-3-[(9-oxo-9H-fluorene-1-carbonyl)-amino]-benzoic acid] gave an IC50 ([1]; IC50) of 11.4 µM.

Compound COC(=O)c1ccc(OC)c(NC(=O)c2cccc3c2C(=O)c2ccccc2-3)c1 [FIV-58, 4-Methoxy-3-[(9-oxo-9H-fluorene-1-carbonyl)-amino]-benzoic acid methyl ester] has an IC50 ([1]; IC50) of 7.2 µM.

Compound O=C(Nc1ccc(F)c(Cl)c1)c1cccc2c1C(=O)c1ccccc1-2 [FIV-60, 9-Oxo-9H-fluorene-1-carboxylic acid (3-chloro-4-fluoro-phenyl)-amide] has an IC50 ([1]; IC50) of 3.8 µM.

Compound O=C(Nc1ccccc1)c1cccc2c1C(=O)c1ccccc1-2 [FIV-61, 9-Oxo-9H-fluorene-1-carboxylic acid phenylamide] has an IC50 ([1]; IC50) of 28.6 µM.

Compound CN(C)c1cccc(NC(=O)c2cccc3c2C(=O)c2ccccc2-3)c1 [FIV-65, 9-Oxo-9H-fluorene-1-carboxylic acid (3-dimethylamino-phenyl)-amide] has an IC50 ([1]; IC50) of 1.5 µM.

Work on O=C(Nc1cccc(OC(F)(F)F)c1)c1cccc2c1C(=O)c1ccccc1-2 [FIV-67, 9-Oxo-9H-fluorene-1-carboxylic acid (3-trifluoromethoxy-phenyl)-amide] yielded an IC50 ([1]; IC50) of 6.9 µM.

Compound N=C(N)c1cccc(NC(=O)c2cccc3c2C(=O)c2ccccc2-3)c1 [FIV-68, 9-Oxo-9H-fluorene-1-carboxylic acid (3-carbamimidoyl-phenyl)-amide] has an IC50 ([1]; IC50) of 2.71 µM.

Work on N#Cc1ccc(NC(=O)c2cccc3c2C(=O)c2ccccc2-3)c(Cl)c1 [FIV-70, 9-Oxo-9H-fluorene-1-carboxylic acid (2-chloro-4-cyano-phenyl)-amide] yielded an IC50 ([1]; IC50) of 50 µM.

— US8003692B2 (priority 2007, dated 2011)
